This is an account of results in patent US4558049A, “Antipsycotic benzoxazines” (Farmitalia Carlo Erba S.p.A., priority 1982, dated 1985).

Read-outs that look alike come from different tables or passages of the source.

The subject of data set [1] is apomorphine-induced climbing behaviour in mice. Put plainly: Apomorphine antagonism in mice (apomorphine-induced climbing behaviour, Protais et al.). To be noted: Mus musculus, po. In kind it is in vivo.
A short description of data set [2]: LD50 / acute toxicity in mice. The settings on record: mouse, in vivo, po, approximate LD50.
Data set [3] deals with neuromuscular coordination in the rat. Put plainly: Rotarod test (neuromuscular coordination in the rat). Format: in vivo. To be noted: p.o.
The subject of data set [4] is conditioned Avoidance Response in the rat. The data set is described as follows: C.A.R. test (interference with conditioned Avoidance Response in the rat). In kind it is in vivo. To be noted: p.o.
Data set [5] relates to rats with 6-OHDA induced unilateral lesions of the dopaminergic nigrostriatal pathway. The data set is described as follows: Turning-behaviour (antagonism to rotational behaviour by dopaminergic agents in rats with 6-OHDA induced unilateral lesions). Format: in vivo. The settings on record: rat, p.o.
For the next data set, the system named is catalepsy in rats. The data set is described as follows: Catalepsy induction in rats. Format: in vivo. The settings on record: rat, p.o.
Data set [6] is described as follows: Reduction of body temperature in mice (Irwin technique). The settings on record: p.o.
Data set [7] has as its system spontaneous activity in mice. The data set is described as follows: Reduction of spontaneous activity in mice (Irwin technique). The settings on record: p.o.
For data set [8], the system named is spontaneous activity in mice. To be noted: mouse, in vivo, po.
For data set [9] the following is noted: mouse, in vivo, po.

In data set [1], `O=C1Nc2ccc([N+](=O)[O-])cc2C2(CCN(CCCC(=O)c3ccc(F)cc3)CC2)O1` [Example 3, 1'-[3-(4-fluorobenzoyl)propyl]spiro-(3,1-benzoxazine-6-nitro-4(2H)4'-piperidin)-2-one] yielded an ED50 of 2.7 mg/kg. Further, in data set [2], the LD50 is above 800 mg/kg. In data set [3], the “Min. active dose in Rotarod test” value came to 50 mg/kg p.o. Further, the “Min. active dose in C.A.R. test” value in data set [4] was 20 mg/kg p.o. For the same compound, the “Min. active dose in Turning-behaviour” value in data set [5] was above 15 mg/kg p.o. Further, the “Min. active dose in Catalepsy induction” value in the data set with catalepsy in rats is reported as 200 mg/kg p.o. For the same compound, in [6], the “Reduction of body temperature in mice (min. active dose)” value (shortened to “Reduction of body temperature in mice”) is reported as 110 mg/kg p.o. For the same compound, the “Reduction of spontaneous activity in mice (min. active dose)” value (“Reduction of spontaneous activity” for short) in data set [7] amounted to 15 mg/kg p.o.

`O=C(CCCN1CCC(O)(c2ccc(Cl)cc2)CC1)c1ccc(F)cc1` [Haloperidol, haloperidol, reference compound]: the ED50 in data set [1] is 0.2 mg/kg. The compound also gave an LD50 in [2] of around 75 mg/kg. The “Min. active dose in Rotarod test” value in data set [3] is 0.5 mg/kg p.o. The “Min. active dose in C.A.R. test” value in data set [4] was determined as 0.5 mg/kg p.o. Besides, the “Min. active dose in Turning-behaviour” value in data set [5] was found to be 0.5 mg/kg p.o. Further, the “Min. active dose in Catalepsy induction” value in the data set on catalepsy in rats came out at 0.5 mg/kg p.o. The “Reduction of spontaneous activity” value in data set [8] was 0.78 mg/kg p.o. For the same compound, in data set [9], the “Reduction of body temperature in mice” value stood at 3.12 mg/kg p.o.

In the case of `O=C1Nc2ccc(Br)cc2C2(CCN(CCCC(=O)c3ccc(F)cc3)CC2)O1` [Example 1, 1'-[3-(4-Fluorobenzoyl)propyl]spiro-(3,1-benzoxazine-6-bromo-4(2H)4'-piperidin)-2-one], the ED50 in [1] is 1.7 mg/kg. Besides, the LD50 in data set [2] was above 800 mg/kg. In addition, the “Min. active dose in Rotarod test” value in data set [3] was above 50 mg/kg p.o. The “Min. active dose in C.A.R. test” value in [4] turned out to be 25 mg/kg p.o. Moreover, the “Min. active dose in Turning-behaviour” value in data set [5] is above 20 mg/kg p.o. For the same compound, in the data set with catalepsy in rats, the “Min. active dose in Catalepsy induction” value was above 200 mg/kg p.o. The “Reduction of body temperature in mice” value in data set [6] was 100 mg/kg p.o. In data set [7], the “Reduction of spontaneous activity” value was found to be 12.5 mg/kg p.o.
